According to patent US20230013823A1, “INHIBITORS OF HUMAN IMMUNODEFICIENCY VIRUS REPLICATION” (VIV HEALTHCARE UK (No. 5) LIMITED, priority 2019, published 2023):
Like-named read-outs stand apart in the source and are kept apart here.

Key:
Type in all cases: cell-based
[1] = test system: recombinant NL4-3 virus (Renilla luciferase in nef); assay: HIV cell culture assay (antiviral activity, luciferase readout in MT-2 cells)
Method in brief: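 MT-2 cells were infected for 4-5 days with 293T-derived recombinant NL4-3 reporter virus in the presence of serially diluted compound. Antiviral activity was quantified as luciferase activity using a live-cell substrate. EC50 was derived from the median effect equation.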

[2] = test system: uninfected MT2 cells; assay: Compound cytotoxicity, XTT-based colorimetric assay; settings: day 4, XTT
Procedure: (§1) Compound cytotoxicity and the corresponding CC50 values were determined using the same protocol as described in the antiviral assay except that uninfected cells were used. Cytotoxicity was assessed on day 4 in uninfected MT2 cells by using an XTT (2,3-bis[2-Methoxy-4-nitro-5-sulfophenyl]-2H-tetrazolium-5-carboxyanilide inner salt)-based colorimetric assay (Sigma-Aldrich, St Louis, Mo.).

[3] = as above; settings: human; uninfected MT2 cells, day 4, XTT
Procedure: as §1

[4] = MT=2 cells infected for 4-5 days with the recombinant virus, luciferase activity, read-out: EC50

| Compound | EC50 [1, 4] | CC50 [2] | EC50 ([1]; Renilla, NL43) | CC50 at 4 days [3] |
| --- | --- | --- | --- | --- |
| Cn1nc(NS(C)(=O)=O)c2c(Cl)ccc(-n3c([C@H](Cc4cc(F)cc(F)c4)NC(=O)Cn4nc(C(F)(F)F)c5c4C(F)(F)[C@@H]4C[C@H]54)nc4cc(-c5ccn(CC(F)(F)C(F)F)n5)ccc4c3=O)c21 [Example 59, N—((S)-1-((3P)-3-(4-chloro-1-methyl-3-(methylsulfonamido)-1H-indazol-7-yl)-4-oxo-7-(1-(2,2,3,3-tetrafluoropropyl)-1H-pyrazol-3-yl)-3,4-dihydroquinazolin-2-yl)-2-(3,5-difluorophenyl)ethyl)-2-((3bS,4aR)-5,5-difluoro-3-(trifluoromethyl)-3b,4,4a,5-tetrahydro-1H-cyclopropa[3,4]cyclopenta[1,2-c]pyrazol-1-yl)acetamide] | 0.11 nM | > 100 nM | – | – |
| CC(C(=O)NC(Cc1cc(F)cc(F)c1)c1nc2cc(-c3ccn(CC(C)(F)F)n3)ccc2c(=O)n1-c1ccc(Cl)c2c(NS(C)(=O)=O)nn(C)c12)n1ccc(C2CC2)n1 [Example 58, (S)—N—((S)-1-((3P)-3-(4-chloro-1-methyl-3-(methylsulfonamido)-1H-indazol-7-yl)-7-(1-(2,2-difluoropropyl)-1H-pyrazol-3-yl)-4-oxo-3,4-dihydroquinazolin-2-yl)-2-(3,5-difluorophenyl)ethyl)-2-(3-cyclopropyl-1H-pyrazol-1-yl)propanamide] | 0.046 nM | > 100 nM | – | – |
| Cn1nc(NS(C)(=O)=O)c2c(Cl)ccc(-n3c([C@H](Cc4cc(F)cc(F)c4)NC(=O)Cn4nc(C(F)F)c5c4C(F)(F)[C@@H]4C[C@H]54)nc4cc(-n5nccc5C(F)(F)F)ccc4c3=O)c21 (atropisomer, axis not shown; (P)) [Example 32, N—((S)-1-((3P)-3-(4-chloro-1-methyl-3-(methylsulfonamido)-1H-indazol-7-yl)-4-oxo-7-(5-(trifluoromethyl)-1H-pyrazol-1-yl)-3,4-dihydroquinazolin-2-yl)-2-(3,5-difluorophenyl)ethyl)-2-((3bS,4aR)-3-(difluoromethyl)-5,5-difluoro-3b,4,4a,5-tetrahydro-1H-cyclopropa[3,4]cyclopenta[1,2-c]pyrazol-1-yl)acetamide] | – | – | 0.079 nM | > 100 nM |
| Cn1nc(NS(C)(=O)=O)c2c(Cl)ccc(-n3c([C@H](Cc4cc(F)cc(F)c4)NC(=O)Cn4nc(C(F)F)c5c4C(F)(F)[C@@H]4C[C@H]54)nc4cc(-c5ccc(F)c(C(F)(F)F)n5)ccc4c3=O)c21 (atropisomer, axis not shown; (P)) [Example 30, N—((S)-1-((3P)-3-(4-chloro-1-methyl-3-(methylsulfonamido)-1H-indazol-7-yl)-7-(5-fluoro-6-(trifluoromethyl)pyridin-2-yl)-4-oxo-3,4-dihydroquinazolin-2-yl)-2-(3,5-difluorophenyl)ethyl)-2-((3bS,4aR)-3-(difluoromethyl)-5,5-difluoro-3b,4,4a,5-tetrahydro-1H-cyclopropa[3,4]cyclopenta[1,2-c]pyrazol-1-yl)acetamide] | – | – | 0.22 nM | > 500 nM |
| Cn1nc(NS(C)(=O)=O)c2c(Cl)ccc(-n3c([C@H](Cc4cc(F)cc(F)c4)NC(=O)Cn4ccc(C5CC5)n4)nc4cc(-c5ccn(CC(F)(F)C(F)F)n5)ccc4c3=O)c21 (atropisomer, axis not shown; (P)) [Example 63, (S)—N-(1-((3P)-3-(4-chloro-1-methyl-3-(methylsulfonamido)-1H-indazol-7-yl)-4-oxo-7-(1-(2,2,3,3-tetrafluoropropyl)-1H-pyrazol-3-yl)-3,4-dihydroquinazolin-2-yl)-2-(3,5-difluorophenyl)ethyl)-2-(3-cyclopropyl-1H-pyrazol-1-yl)acetamide] | – | – | 0.043 nM | > 100 nM |
| Cn1nc(NS(C)(=O)=O)c2c(Cl)ccc(-n3c([C@H](Cc4cc(F)cc(F)c4)NC(=O)Cn4nc(C(F)F)c5c4C(F)(F)[C@@H]4C[C@H]54)nc4cc(-c5ccc6ncsc6c5)ccc4c3=O)c21 (atropisomer, axis not shown; (P)) [Example 44, N—((S)-1-(7-(benzo[d]thiazol-6-yl)-(3P)-3-(4-chloro-1-methyl-3-(methylsulfonamido)-1H-indazol-7-yl)-4-oxo-3,4-dihydroquinazolin-2-yl)-2-(3,5-difluorophenyl)ethyl)-2-((3bS,4aR)-3-(difluoromethyl)-5,5-difluoro-3b,4,4a,5-tetrahydro-1H-cyclopropa[3,4]cyclopenta[1,2-c]pyrazol-1-yl)acetamide] | – | – | 0.61 nM | > 100 nM |
